Reference: patent publication US8093265B2, “Bicycloheteroaryl compounds as P2X7 modulators and uses thereof” (Renovis, Inc., priority 2007, dated 2012)

Legend:
P2X7 receptor = target: T1, P2X7 receptor (Homo sapiens, UniProt Q99572); assay: IL-1β release assay in differentiated THP-1 cells (Example 9); format: cell-based; conditions: THP-1 cells differentiated with LPS and IFN-γ; 30 min pretreatment; BzATP 250 uM; IL-1β by ELISA
T1 construct: host or cells: THP-1 cells differentiated with LPS and IFN-γ
T1 sequence (Q99572 1-595): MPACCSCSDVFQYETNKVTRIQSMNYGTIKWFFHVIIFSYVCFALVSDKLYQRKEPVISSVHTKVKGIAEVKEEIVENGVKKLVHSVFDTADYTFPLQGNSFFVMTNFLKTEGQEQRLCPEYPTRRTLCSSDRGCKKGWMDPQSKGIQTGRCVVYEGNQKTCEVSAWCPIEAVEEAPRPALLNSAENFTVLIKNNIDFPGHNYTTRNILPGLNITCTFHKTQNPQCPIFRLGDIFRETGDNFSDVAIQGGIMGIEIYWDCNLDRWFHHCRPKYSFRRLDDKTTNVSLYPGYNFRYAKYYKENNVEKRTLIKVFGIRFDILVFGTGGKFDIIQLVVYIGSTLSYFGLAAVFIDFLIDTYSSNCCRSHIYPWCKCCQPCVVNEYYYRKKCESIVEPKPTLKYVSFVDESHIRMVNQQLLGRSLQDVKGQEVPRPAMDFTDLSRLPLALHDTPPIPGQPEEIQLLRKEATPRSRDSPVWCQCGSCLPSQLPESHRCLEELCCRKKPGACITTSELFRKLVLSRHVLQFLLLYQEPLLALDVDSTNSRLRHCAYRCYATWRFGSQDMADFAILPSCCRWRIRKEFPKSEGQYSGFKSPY
In short: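 THP-1 cells differentiated 16 h with LPS and IFN-γ (100 ng/mL each), re-primed 2 h with LPS, then pretreated 30 min with compound before 250 uM BzATP for 45 min. Supernatant IL-1β measured by ELISA; background-adjusted % inhibition fitted to a four-parameter logistic for IC50.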

[1] = Half-life in human liver microsomes (HLM); format: in vitro ADME; conditions: human liver microsomes 0.78 mg/mL, 1 μM compound, NADPH, 37° C.; for half-life at 1 μM: pH 7.4
Procedure: Half-Life in Human Liver Microsomes (HLM)
Test compounds (1 μM) are incubated with 3.3 mM MgCl2 and 0.78 mg/mL HLM (HL101) in 100 mM potassium phosphate buffer (pH 7.4) at 37° C. on the 96-deep well plate. The reaction mixture is split into two groups, a non-P450 and a P450 group. NADPH is only added to the reaction mixture of the P450 group. An aliquot of samples of P450 group is collected at 0, 10, 30, and 60 min time point, where 0 min time point indicated the time when NADPH is added into the reaction mixture of P450 group. […] Collected aliquots are extracted with acetonitrile solution containing an internal standard. […] The compound concentration in supernatant is measured by LC/MS/MS system.
The half-life value is obtained by plotting the natural logarithm of the peak area ratio of compounds/internal standard versus time. The slope of the line of best fit through the points yields the rate of metabolism (k). This is converted to a half-life value using following equations: Half-life=ln 2/k

[2] = Pharmacokinetic evaluation following intravenous and oral administration in rats; format: in vivo, rat; conditions: male Sprague-Dawley rats; PO 1 to 5 mg/kg vs IV 1 mg/kg; AUCinf(PO)/AUCinf(IV) dose-normalized
Procedure: Pharmacokinetic Evaluation of Compounds Following Intravenous and Oral Administration in Rats.
Male Sprague-Dawley rats are acclimated for at least 24 hours prior to experiment initiation. During the acclimation period, all animals receive food and water ad libitum. However, food but not water is removed from the animals' cages at least 12 hours before initiation of the experiment. During the first 3 hours of experimentation, the animals receive only water ad libitum. At least three animals each are tested for intravenous and oral dosage. For intravenous formulation, compounds are dissolved (0.25 to 1 mg/mL) in a mixture of 3% dimethyl sulfoxide, 40% PEG 400 and the rest percentage of 40% Captisol in water (w/v). The animals are weighed before dosing. The determined body weight is used to calculate the dose volume for each animal. Dose volume (mL/kg)=1 mg/kg/formulation concentration (mg/mL)
In instances where the formulation concentrations are less than 0.5 mg/mL, the dosing volume is about 2 mL/kg.
For oral formulation, compounds of this invention are suspended (0.5 to 0.75 mg/mL) in a mixture of 5% of 10% Tween 80 in water (v/v) and 95% of 0.5% methyl cellulose in water (w/v). PO rats are typically dosed through oral gavage following the same dose volume formula as IV to achieve a dose level of 1 to 5 mg/kg. For IV dosing, blood samples are collected (using a pre-heparinized syringe) via the jugular vein catheter at 2, 5, 15, 30, 60, 120, 180, 300, 480, and 1440 minutes post dosing. For PO dosing blood samples are collected (using a pre-heparinized syringe) via the jugular vein catheter before dosing and at 5, 15, 30, 60, 120, 180, 300, 480, and 1440 minutes post dosing. About 250 uL of blood is obtained at each time point from the animal. Equal volumes of 0.9% normal saline are replaced to prevent dehydration. The whole blood samples are maintained on ice until centrifugation. Blood samples are then centrifuged at 14,000 rpm for 10 minutes at 4° C., and the upper plasma layer is then transferred into a clean vial and stored at −80° C. The resulting plasma samples are then analyzed by liquid chromatography-tandem mass spectrometry. Following the measurement of plasma samples and dosing solutions, plasma concentration-time curve is plotted. Plasma exposure is calculated as the area under the concentration-time curve extrapolated to time infinite (AUCinf). The AUCinf is averaged and the oral bioavailability (% F) for individual animal is calculated as: • AUCinf(PO)/AUCinf(IV), normalized to their respective dose levels.
The % F can be reported as the mean % F of all animals dosed orally with the compound of the invention at the specified level.
For the purpose of Table 3, the oral bioavailability of each compound is expressed as follows: […]

[3] = Plasma protein binding by equilibrium dialysis, human plasma; format: in vitro ADME; conditions: pH 7.4, equilibrium dialysis 16 hr at 37° C., % Bound
Procedure: The plasma protein binding of compounds of invention is measured in human and rat plasma, respectively. A stock solution of the tested compound is prepared in 1 mg/mL in DMSO solution. The stock solution is spiked into the blank plasma to get a final compound concentration at 1 μg/mL for testing. Equilibrium dialysis (The equilibrium dialyzer-96TM MWCO 5K Daltons, Harvard Apparatus) method is used for the testing purpose.
The compound spiked plasma (at […]) and phosphate buffer (0.1 M, pH 7.4), 200 μl each, are added into the opposite sides of the membrane in a 96-well equilibrium dialyzer, respectively. The dialyzer plate is covered and incubated overnight (16 hr) at 37° C. in the 8-plate rotor incubator (Big Shot III 8-plate rotor, Harvard Apparatus). Aliquots (100 μL) are taken from the plasma and the buffer compartments, respectively. The matrix effects are eliminated by adding the same volume of blank plasma into the samples from buffer compartments and adding the same volume of phosphate buffer into the samples from plasma compartments. The samples are extracted by using the regular (3:1) protein precipitation extraction procedure (acetonitrile with internal standard). The supernatants are taken for LC/MS/MS analysis. The percentage of plasma-protein binding can be calculated by using the following method: % Free=[Free Drug/Total Drug]*100=[(Peak Area)buffer/(Peak Area)plasma]*100 % Bound=100−% Free.
For the purpose of Table 4, the plasma protein binding of each compound is expressed as follows: […]

Row | Structure (SMILES) | IC50 (P2X7 receptor) | half-life at 1 μM [1] | Oral Bioavailability F (%) [2] | fraction unbound at 16 hr, 1 μg/mL [3] | Half Life [1]
1 | O=C(Cc1ccc(C(F)(F)F)c(F)c1)Nc1c(Cl)ccc2c(=O)n(CCO)ccc12 [Compound 16, N-[6-Chloro-2-(2-hydroxy-ethyl)-1-oxo-1,2-dihydro-isoquinolin-5-yl]-2-(3-fluoro-4-trifluoromethyl-phenyl)-acetamide] | 6 nM | – | ++++ (>75% F) | < 0.1 | 3.7 h
2 | C[C@H](CO)n1ccc2c(NC(=O)Cc3ccc(C(F)(F)F)cc3)c(Cl)ccc2c1=O [Compound 10, N-[6-Chloro-2-((R)-2-hydroxy-1-methyl-ethyl)-1-oxo-1,2-dihydro-isoquinolin-5-yl]-2-(4-trifluoromethyl-phenyl)-acetamide] | 10 nM | – | ++++ (>75% F) | < 0.1 | 3.2 h
3 | Cc1ccc2c(=O)n([C@H]3CCNC3)ccc2c1NC(=O)Cc1ccc(C(F)(F)F)c(F)c1 [Compound 29, 2-(3-Fluoro-4-trifluoromethyl-phenyl)-N-((S)-6-methyl-1-oxo-2-pyrrolidin-3-yl-1,2-dihydro-isoquinolin-5-yl)-acetamide] | 23 nM | 3.5 h | + (0-25% F) | – | –
4 | C[C@H](C(N)=O)n1ccc2c(NC(=O)Cc3cccc(C(F)(F)F)c3F)c(Cl)ccc2c1=O [Compound 5, (R)-2-{6-Chloro-5-[2-(2-fluoro-3-trifluoromethyl-phenyl)-acetylamino]-1-oxo-1H-isoquinolin-2-yl}-propionamide] | 7 nM | – | + (0-25% F) | – | 1.2 h

Compounds with a lower IC50 (P2X7 receptor), results first:

Row | IC50 (P2X7 receptor) | half-life at 1 μM [1] | Oral Bioavailability F (%) [2] | fraction unbound at 16 hr, 1 μg/mL [3] | Half Life [1] | Structure (SMILES)
5 | 5 nM | 1.6 h | +++ (51-75% F) | 0.1 to 0.24 | – | Cc1ccc2c(=O)n([C@H](C)CO)ccc2c1NC(=O)Cc1ccc(Cl)c(F)c1 [Compound 26, 2-(4-Chloro-3-fluoro-phenyl)-N-[2-((R)-2-hydroxy-1-methyl-ethyl)-6-methyl-1-oxo-1,2-dihydro-isoquinolin-5-yl]-acetamide]
6 | 5 nM | – | + (0-25% F) | < 0.1 | 1.1 h | O=C(Cc1ccc(F)c(C(F)(F)F)c1)Nc1c(Cl)ccc2c(=O)n(CCO)ccc12 [Compound 19, N-[6-Chloro-2-(2-hydroxy-ethyl)-1-oxo-1,2-dihydro-isoquinolin-5-yl]-2-(4-fluoro-3-trifluoromethyl-phenyl)-acetamide]
7 | 5 nM | – | ++++ (>75% F) | < 0.1 | 1.6 h | C[C@H](CO)n1ccc2c(NC(=O)Cc3ccc(C(F)(F)F)c(F)c3)c(Cl)ccc2c1=O [Compound 11, N-[6-Chloro-2-((R)-2-hydroxy-1-methyl-ethyl)-1-oxo-1,2-dihydro-isoquinolin-5-yl]-2-(3-fluoro-4-trifluoromethyl-phenyl)-acetamide]
8 | 0.7 nM | 0.3 h | + (0-25% F) | – | – | Cc1ccc2c(=O)n([C@H](C)CO)ccc2c1C(=O)NCC1CCCCCC1 [Compound 49, 2-((R)-2-Hydroxy-1-methyl-ethyl)-6-methyl-1-oxo-1,2-dihydro-isoquinoline-5-carboxylic acid cycloheptylmethyl-amide]
